Measured values taken from the supplement of paper PMC10307832.

Legend:
Experiment in all cases: relative viability (nuclei count vs DMSO), 5 days (fraction); higher = more cells survive
Halofuginone + Olaparib = compound: O=C(C[C@H]1NCCC[C@@H]1O)Cn1cnc2cc(Br)c(Cl)cc2c1=O (racemic) [Halofuginone] + O=C(c1cc(Cc2n[nH]c(=O)c3ccccc23)ccc1F)N1CCN(C(=O)C2CC2)CC1 [Olaparib] (partner 8 µM)
Outline: (§1)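 Lung cancer cell lines in 1536-well plates were dosed by pin tool the day after seeding, either with one drug alone or with a fixed anchor-drug dose plus five library-drug doses (not always all listed) in √10 steps. After 5 days, cells were fixed and their nuclei stained in one step (final 0.05% Triton X-100, 1% formaldehyde, 1 ug/ml Hoechst), then counted on 4× images. Relative viability is the nuclei count in treated wells divided by that in vehicle wells. Values are medians of duplicate plates.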

Decitabine + Foretinib = compound: Nc1ncn([C@H]2C[C@H](O)[C@@H](CO)O2)c(=O)n1 [Decitabine] + COc1cc2c(Oc3ccc(NC(=O)C4(C(=O)Nc5ccc(F)cc5)CC4)cc3F)ccnc2cc1OCCCN1CCOCC1 [Foretinib] (partner 0.25 µM)
Outline: as §1

[1] = compound: O=C(C[C@H]1NCCC[C@@H]1O)Cn1cnc2cc(Br)c(Cl)cc2c1=O (racemic) [Halofuginone] + CC(=O)c1c(C)c2cnc(Nc3ccc(N4CCNCC4)cn3)nc2n(C2CCCC2)c1=O [Palbociclib] (partner 0.5 µM)
Outline: as §1

[2] = compound: O=C(C[C@H]1NCCC[C@@H]1O)Cn1cnc2cc(Br)c(Cl)cc2c1=O (racemic) [Halofuginone] + C[C@@H](Oc1cc(-c2cnn(C3CCNCC3)c2)cnc1N)c1c(Cl)ccc(F)c1Cl [Crizotinib] (partner 1 µM)
Outline: as §1

Cell Line	relative viability (Halofuginone + Olaparib; first compound 0.001 µM)	relative viability (Halofuginone + Olaparib; first compound 0.003162 µM)	relative viability (Halofuginone + Olaparib; first compound 0.01 µM)	relative viability (Halofuginone + Olaparib; first compound 0.03162 µM)	relative viability (Halofuginone + Olaparib; first compound 0.1 µM)	relative viability (Decitabine + Foretinib; first compound 0.04 µM)	relative viability (Decitabine + Foretinib; first compound 0.1265 µM)	relative viability (Decitabine + Foretinib; first compound 0.4 µM)	relative viability (Decitabine + Foretinib; first compound 1.265 µM)	relative viability (Decitabine + Foretinib; first compound 4 µM)	relative viability ([1]; first compound 0.001 µM)	relative viability ([1]; first compound 0.003162 µM)	relative viability ([1]; first compound 0.01 µM)	relative viability ([1]; first compound 0.03162 µM)	relative viability ([1]; first compound 0.1 µM)	relative viability ([2]; first compound 0.001 µM)	relative viability ([2]; first compound 0.003162 µM)	relative viability ([2]; first compound 0.01 µM)	relative viability ([2]; first compound 0.03162 µM)	relative viability ([2]; first compound 0.1 µM)
NCI-H2023	0.509	0.565	0.405	0.239	0.0514	0.649	0.617	0.369	0.265	0.189	0.406	0.361	0.374	0.138	0.0623	0.847	0.649	0.701	0.493	0.0689
HCC-366	0.337	0.319	0.351	0.328	0.0775	0.825	0.743	0.448	0.211	0.128	0.363	0.472	0.351	0.358	0.14	0.759	0.515	0.607	0.544	0.0412
NCI-H1355	0.785	0.805	0.611	0.754	0.7	0.568	0.596	0.436	0.374	0.305	0.414	0.435	0.368	0.413	0.38	1.04	1.04	1.08	1.08	0.921
NCI-H1650	0.95	0.806	0.836	0.677	0.538	0.903	0.855	0.553	0.512	0.301	0.265	0.303	0.323	0.323	0.173	1.05	1.05	0.951	0.823	0.59
SW 1573	0.496	0.422	0.526	0.232	0.138	0.769	0.891	0.793	0.591	0.49	0.422		0.392	0.23	0.106	1.03	0.915	0.803	0.574	0.195
NCI-H661	0.797	0.74	0.671	0.666	0.566	1.02	0.966	0.777	0.6	0.554	0.422	0.405	0.37	0.373	0.312	1.1		0.911	0.921	0.893
LU99A	0.268	0.257	0.25	0.248	0.286	0.766	0.814	0.874	0.625	0.486	0.444	0.466	0.393	0.401	0.41	0.632	0.556	0.558	0.499	0.41
LCLC-97TM1	0.445	0.314	0.392	0.387	0.233	0.583	0.728	0.418	0.256	0.177	0.3	0.194	0.257	0.239	0.219	0.394	0.297	0.31	0.266	0.237
LC-2-ad	0.675	0.697	0.692	0.678	0.669	0.68	0.889	0.794	0.557	0.516	0.504	0.505	0.456	0.478	0.411	0.555	0.472	0.431	0.516	0.439
NCI-H2228	0.669	0.627	0.461	0.184	0.124	0.593	0.532	0.352	0.273	0.207	0.957	0.736	0.971	0.496	0.111	0.45	0.658	0.411	0.218	0.177
NCI-H1944	0.416	0.407	0.395	0.405	0.402	0.766	0.752	0.567	0.444	0.396	0.286	0.362	0.313	0.357	0.293	1.1	1.19	1.11	1.05	0.803
HOP-62	0.493	0.473	0.415	0.296	0.129	0.773	0.53	0.315	0.197	0.218	0.435	0.427	0.426	0.375	0.227	0.905	0.958	0.971	0.972	0.676
NCI-H2347	0.537	0.583	0.565	0.518	0.43		0.857	0.454	0.683	0.819	0.44	0.453	0.513	0.438	0.332	0.677	0.72	0.81	0.736	0.551
NCI-H2087	0.616	0.685	0.629	0.617	0.277	0.558	0.624	0.393	0.317	0.269	0.254	0.22	0.189	0.22	0.2	0.738	0.902	0.77	0.851	0.851
EPLC-272H	1.09	0.775	0.583	0.764	0.445		0.611	0.0722	0.304	0.35	0.306	0.33	0.339	0.361	0.314	0.871	0.928	0.879	0.807	0.774
LXF-289	1.02	1.03	1.06	1.07	0.815	0.713	0.541	0.399	0.289	0.269	0.553	0.608	0.577	0.603	0.581	0.829	0.737	0.746	0.825	0.653
